Measurements: PubChem BioAssay (NCI)
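Assay format: 96-well plates, 48-hour exposure. TGI is the concentration that stops growth completely.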

Key:
Assay in all cases: NCI tumour cell line growth inhibition, 48 h
ACHN renal = tested on: ACHN renal
CCRF-CEM leukemia = tested on: CCRF-CEM leukemia
HCT-116 colon = tested on: HCT-116 colon
HCT-15 colon = tested on: HCT-15 colon
HOP-62 NSCLC = tested on: HOP-62 NSCLC
HOP-92 NSCLC = tested on: HOP-92 NSCLC
HT29 colon = tested on: HT29 colon
IGROV1 ovarian = tested on: IGROV1 ovarian
K-562 leukemia = tested on: K-562 leukemia
KM12 colon = tested on: KM12 colon
OVCAR-4 ovarian = tested on: OVCAR-4 ovarian
OVCAR-5 ovarian = tested on: OVCAR-5 ovarian
OVCAR-8 ovarian = tested on: OVCAR-8 ovarian
RPMI-8226 leukemia = tested on: RPMI-8226 leukemia
SF-268 CNS = tested on: SF-268 CNS
SF-295 CNS = tested on: SF-295 CNS
SNB-19 CNS = tested on: SNB-19 CNS
SR leukemia = tested on: SR leukemia
UACC-62 melanoma = tested on: UACC-62 melanoma
UO-31 renal = tested on: UO-31 renal

Compound | TGI (ACHN renal) | TGI (CCRF-CEM leukemia) | TGI (HCT-116 colon) | TGI (HCT-15 colon) | TGI (HOP-62 NSCLC) | TGI (HOP-92 NSCLC) | TGI (HT29 colon) | TGI (IGROV1 ovarian) | TGI (K-562 leukemia) | TGI (KM12 colon) | TGI (OVCAR-4 ovarian) | TGI (OVCAR-5 ovarian) | TGI (OVCAR-8 ovarian) | TGI (RPMI-8226 leukemia) | TGI (SF-268 CNS) | TGI (SF-295 CNS) | TGI (SNB-19 CNS) | TGI (SR leukemia) | TGI (UACC-62 melanoma) | TGI (UO-31 renal)
CC1(Cl)CC2C(CC1Sc1nnnn1-c1ccccc1)C2(C)C (stereo not given) | > 100 µM | > 100 µM | > 100 µM | > 100 µM | > 100 µM | > 100 µM | > 100 µM | > 100 µM | > 100 µM | > 100 µM | > 100 µM | > 100 µM | > 100 µM | > 100 µM | > 100 µM | > 100 µM | > 100 µM | > 100 µM | > 100 µM | > 100 µM
Clc1ccc(N=c2oc3ccccc3cc2-c2nc3ccccc3[nH]2)c(Cl)c1 | > 100 µM | > 100 µM | > 100 µM | > 100 µM | 65.1 µM | > 100 µM | > 100 µM | > 100 µM | > 100 µM | > 100 µM | > 100 µM | > 100 µM | > 100 µM | > 100 µM | 89.1 µM | > 100 µM | > 100 µM | > 100 µM | > 100 µM | > 100 µM
